Non-standard residues stand in square brackets, D forms with d. Residues, ends and D or L forms follow the SMILES beside them. Aib = CC(C)(N)C(=O)O
Tests used:
[1] = target: T1, FPR1 (Homo sapiens, UniProt P21462); assay: Competition with FITC-fMLF binding to RBL-2H3/ETFR cells stably expressing FPR1; settings: 100 nM pre-incubation 60 min at 4° C., then 10 nM FITC-fMLF
T1 construct: expressed in transfected cells; host or cells: rat basophilic leukaemia RBL-2H3/ETFR cells
T1 sequence (P21462 1-350): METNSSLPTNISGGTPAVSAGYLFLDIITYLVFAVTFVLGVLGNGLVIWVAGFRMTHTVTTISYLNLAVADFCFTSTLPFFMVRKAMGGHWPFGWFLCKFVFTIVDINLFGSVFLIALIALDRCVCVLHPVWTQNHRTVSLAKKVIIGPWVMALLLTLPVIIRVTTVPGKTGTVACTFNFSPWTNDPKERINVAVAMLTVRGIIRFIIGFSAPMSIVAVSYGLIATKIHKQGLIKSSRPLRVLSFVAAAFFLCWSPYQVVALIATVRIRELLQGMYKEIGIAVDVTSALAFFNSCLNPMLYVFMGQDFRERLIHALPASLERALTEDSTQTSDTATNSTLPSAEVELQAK
Procedure: (§1) Cell-associated fluorescence was measured using a fluorescence plate reader. The results are depicted in FIG. 3. […] To evaluate the effect of RI-3 on agonist-dependent FPR1 internalization, binding experiments were performed at 37° C. and cells were visualized using a Zeiss 510 Meta LSM microscope. Original magnifications: 630×. Scale bar: 10 μm.

[2] = target: T1, FPR1; assay: Agonist-dependent FPR1 internalization in RBL-2H3/ETFR cells (microscopy); assay type: cell-based; settings: binding experiments at 37° C., FITC-fMLF
Procedure: as §1

[3] = Stability in human serum, read out by HT1080 matrigel invasion in Boyden chambers; assay type: in vitro ADME; settings: 10^−3 mol/L in serum 18 hrs at 37° C., then 10 nM, invasion 6 hrs
Procedure: FIG. 7 The retro-inverso peptide RI-3 is stable when pre-incubated in bovine (A) or human serum (B) as assessed in real time using the xCELLigence technology (A) or in Boyden chambers (B) (Example 7).
The stability of the retro-inverso peptide RI-3 in bovine and human serum was investigated through incubation of the peptide at a 10^−3 mol/L in serum for 18 hrs at 37° C. HT1080 cells were allowed to migrate toward DMEM (CTRL), 10% FBS (None), 10% FBS plus 10 nM RI-3 or 10% FBS with 10 nM RI-3 pre-incubated with bovine serum and the impedance values were automatically monitored in real time by the xCELLigence system for 18 hrs and expressed as cell index. Data represent the means from a quadruplicate experiment representative of 2 replicates. […] The stability of RI-3 in human serum was further investigated in cell invasion experiments performed in Boyden chambers. HT1080 cells were allowed to invade matrigel for 6 hrs, toward DMEM (CTRL), 10% FBS (None), 10% FBS plus 10 nM RI-3 or 10% FBS with 10 nM RI-3 pre-incubated with human serum. For quantitative analysis of cell invasion, the basal value assessed in the absence of FBS (CTRL) was taken as 100% and all values were reported relative to that. Data are the means±SD from a triplicate experiment. *Statistical significance was calculated against None with p<0.005. […]

[4] = tested on: chondrosarcoma Sarc; assay: Matrigel invasion (xCELLigence RTCA), Sarc; assay type: cell-based, human; settings: 10 nM, 20 hrs
Procedure: (§2) FIG. 8 At the concentration of 10 nM the retro-inverso peptide RI-3 prevents matrigel invasion of tumor cells from human osteosarcoma Saos-2 (A), chondrosarcoma Sarc (B), melanoma A375 (C), metastatic melanoma A375M6 (D), ovarian carcinoma SKOV-3 cells (E), or primary ovarian cancer cells derived from a tumor excision (OV-53) (F), as monitored in real-time for 20 hr as changes in cell index by the xCELLigence RTCA system (Example 8).
(§3) To investigate the ability of RI-3 to prevents matrigel invasion of tumor cells form different tissue origins, human osteosarcoma Saos-2 (A), chondrosarcoma Sarc (B) melanoma A375 (C), metastatic melanoma A375M6 (D), ovarian carcinoma SKOV-3 cells (E) or primary ovarian cancer cells derived from a tumor excision (OV-53) (F) were seeded on polymerized matrigel and allowed to invade matrigel in the absence (None) or in the presence of 10 nM RI-3. Cell invasion was monitored in real-time for 20 hrs as changes in cell index by the xCELLigence RTCA system. Data represent mean±SD from quadruplicate experiments. All cell lines were able to cross matrigel, although to a different extent. In all case RI-3 reduced matrigel invasion by about 30%, 31%, 64%, 57%, 53% and 68%, of Saos-2, Sarc, A375, A375M6, SKOV-3 and OV-53 cells, respectively.

[5] = tested on: ovarian carcinoma SKOV-3 cells; assay: Matrigel invasion (xCELLigence RTCA), SKOV-3; assay type: cell-based, human; settings: 10 nM, 20 hrs
Procedure: as §2, §3

[6] = tested on: primary ovarian cancer cells derived from a tumor excision (OV-53); assay: Matrigel invasion (xCELLigence RTCA), OV-53; assay type: cell-based, human; settings: 10 nM, 20 hrs
Procedure: as §2, §3

[7] = tested on: human chondrosarcoma Sarc; assay: Trans-endothelial migration through HUVEC monolayer (xCELLigence RTCA), Sarc; assay type: cell-based; settings: 10 nM, 5 hrs
Procedure: (§4) FIG. 9 At the concentration of 10 nM the retro-inverso peptide RI-3 affects trans-endothelial migration of human chondrosarcoma Sarc (A), melanoma A375 (B), ovarian carcinoma SKOV-3 (C) cells, or THP1 monocytes (D), as monitored by the xCELLigence RTCA system (Example 9).
(§5) The entry of tumor cells into bloodstream is one of the earliest events of the metastatic process. The ability of RI-3 to affect trans-endothelial migration of human chondrosarcoma Sarc (A) melanoma A375 (B), ovarian carcinoma SKOV-3 (C) cells, or THP1 monocytes (D) was monitored by the xCELLigence RTCA system. Human Umbilical Vein Endothelial Cells (HUVEC) (1×10^4 cells/well) suspended in growth medium, were allowed to grow for 20-25 hrs until they form a confluent monolayer, prior to seeding Sarc, A375, SKOV-3, or THP-1 cells (1×10^4 cells/well) in growth medium in the absence (None) or in the presence of 10 nM RI-3. The experiments were performed twice in quadruplicate. When cells cross the endothelial monolayer, there is a drop in electrical resistance which is monitored in real-time for 5 hrs as the cell index changes due to the rupture of endothelial monolayer. All cell lines were able to reduce endothelial monolayer integrity. The addition of 10 nM RI-3 inhibited the capability of Sarc, A375, SKOV-3, and THP-1 cells to disrupt endothelial monolayers by 17%, 22%, 58%, and 36% respectively.

[8] = tested on: melanoma A375; assay: Trans-endothelial migration through HUVEC monolayer (xCELLigence RTCA), A375; assay type: cell-based, human; settings: 10 nM, 5 hrs
Procedure: as §4, §5

[9] = tested on: THP1 monocytes; assay: Trans-endothelial migration through HUVEC monolayer (xCELLigence RTCA), THP-1; assay type: cell-based, human; settings: 10 nM, 5 hrs
Procedure: as §4, §5

## CC(=O)N[C@H](Cc1ccc(O)cc1)C(=O)N[C@H](CCCNC(=N)N)C(=O)NC(C)(C)C(=O)N[C@H](CCCNC(=N)N)C(N)=O [RI-3, Ac-(D)-Tyr-(D)-Arg-Aib-(D)-Arg-NH2] (Ac-[dY][dR][Aib][dR]-NH2)
[1]
  inhibition of binding of fluorescent agonist (FITC-fMLF) to RBL-2H3/ETFR cells: to a similar extent as compared to fMLF
[2]
  agonist-dependent FPR1 internalization: prevented agonist-dependent FPR1 internalization
[3]
  inhibitory activity retained after pre-incubation with human serum: 81%
[4]
  reduction of matrigel invasion: ~31%
[5]
  reduction of matrigel invasion: ~53%
[6]
  reduction of matrigel invasion: ~68%
[7]
  inhibition of the capability to disrupt endothelial monolayers: 17%
[8]
  inhibition of the capability to disrupt endothelial monolayers: 22%
[9]
  inhibition of the capability to disrupt endothelial monolayers: 36%
